Data from BindingDB's records for patent US20240216357 (Sichuan Huiyu Pharmaceutical, 2024).

Target: Lysine-specific histone demethylase 1A (Homo sapiens, UniProt O60341)
Test: LSD1 Enzyme Activity Assay

SMILES | IC50 [µM]
Cc1ccc(-c2c(-c3ccc(C#N)cc3)nc3c(N4CCC[C@@H](N)C4)nccn23)cc1 [US20240216357, Example 5] | 0.0285
COc1ccc(Nc2c(O)cc(N3CCC(N)CC3)nc2-c2ccc(C#N)c(F)c2)cc1F [US20240216357, Example 64] | 0.119
COc1cc(N2CCC(N)CC2)nc(-c2ccc(C#N)c(F)c2)c1-c1ccc(Cl)c(O)c1 [US20240216357, Example 98] | 0.0007
COc1ccc(-c2nc(N3CCC(N)CC3)cc(C#N)c2-c2ccc(C#N)c(F)c2)cc1O [US20240216357, Example 274] | 0.0238
COc1ccc(-c2c(-c3ccc(C#N)c(F)c3)nc(N3CCC(N)CC3)c3c2OCC(=O)N3)cc1O [US20240216357, Example 280] | 0.000272
Cc1noc2cc(-c3cc(C#N)c(N4CCC(N)CC4)nc3-c3ccc(C#N)c(F)c3)c(F)cc12 [US20240216357, Example 284] | 0.633
COc1ccc(-c2c(-c3ccc(C#N)c(F)c3)nc(N3CCC(N)CC3)c3c2cnn3C)cc1O [US20240216357, Example 285] | 0.00093
